Test results reported in patent publication US7186879B2, “Screening systems and methods for identifying modulators of xenobiotic metabolism” (Baylor College of Medicine, priority 2001, dated 2007).

What was measured:
[1] = test system: wild-type and CAR −/− mice; test: Liver enlargement (liver mass relative to body weight); assay type: in vivo, mouse; conditions: for hyperplasia or hypertrophy in the liver: CAR knockout mice; for liver mass: three days of treatment
Protocol: FIG. 3A is a bar graph showing the liver enlargement and hepatocyte proliferation by PB or TCPOBOP. Mice (8–10 weeks old) were treated with PB or TCPOBOP for 3 days, and then both liver mass and body weight were measured. The data is presented as percentage of liver mass relative to total body weight.
This hepatomegaly is thought to be a reflection of both cellular hypertrophy and mitogenesis.

[2] = test system: wild-type and CAR −/− mice; test: Cocaine-mediated hepatotoxicity, serum ALT; conditions: for evidence of liver damage after cocaine: CAR −/− animals; for serum ALT as acute response to cocaine: male wild-type mice pretreated three days, cocaine 30 mg/kg
Protocol: FIG. 4 is a bar graph showing the effect of PB or TCPOBOP on cocaine-mediated hepatotoxicity, measured as serum alanine aminotransferase (ALT) activity. Male mice were pretreated with PB or TCPOBOP for three days. Twenty-four hours after the last dose, one injection of cocaine was given to the animals. Blood was drawn 20 hours after cocaine treatment for determination of serum ALT activity.
Blood was drawn from the eye for determination of serum ALT activity.

[3] = test system: CYP2E1, CYP1A2, CYP3A11, GSTPi; test: Northern blot of APAP metabolizing genes in liver of wild-type and CAR null mice; conditions: for suppression of CYP2E1 and induction of CYP1A2, CYP3A11, GSTPi: CAR null mice; for CYP1A2 mRNA / CYP2E1 mRNA levels / CYP3A11 mRNA / GSTPi mRNA: wild-type animals, three days pretreatment
Protocol: CAR (+/+) or CAR (−/−) animals pretreated with phenobarbital (PB), TCPOBOP (TC), or vehicle alone were administered a 250 mg/kg dose of APAP by intraperitoneal injection (n=5–7 per treatment group) (FIG. 11A). […] Liver sections from different treatments were examined by histological staining (FIG. 11B). Liver samples from all treated animals were analyzed but only representative histology is presented. […] CAR (+/+) or CAR (−/−) animals were pretreated with PB, TCPOBOP (TC), or vehicle alone for three days (FIG. 11C). […] Liver samples treated as indicated were collected two hours after APAP and GSH levels were measured (n=5–7) (FIG. 11D).
CAR (+/+) and CAR (−/−) animals were given 250 mg/kg, 500 mg/kg, or 800 mg/kg doses of APAP, respectively (FIG. 12A). […] Total liver RNA was prepared from 500 mg/kg APAP treated CAR (+/+) and CAR (−/−) livers at 0 and 2 hours as indicated. […] The same blot was stripped and re-probed with β-actin as loading control.
For histologic examination of the treated mice, the left lobe of the livers was removed and immediately fixed in 4% formaldehyde-PBS solution, embedded in paraffin, sectioned at 5 μm, and stained with hematoxylin and eosin. Samples were examined under a light microscope. For RNA studies, total RNA was extracted using TRIzol Reagent (Invitrogen Life Technologies, Carlsbad, Calif.) according to the manufacture's instruction. Equivalent amount of RNA from 3–5 mice were pooled and 10 μg of each sample was subjected to northern blot analysis. […] Hepatic non-protein thiol was measured as an indication of hepatic GSH content. Mice were sacrificed two hours after intraperitoneal injection with APAP. […] Supernatant (0.5 ml) was mixed with 1.5 ml 0.1 mM Ellman's reagent [5,5′-dithio-bis(2-nitrobenzoic acid)] […] Absorbance was read at 412 nm using GSH solutions as quantitative standards.

hepatic GSH = test: Hepatic GSH content (non-protein thiol); assay type: in vivo, mouse; conditions: for hepatic GSH levels versus vehicle CAR (+/+) and pretreated CAR (−/−) animals: pretreated wild-type animals, two hours after APAP; for decrease in hepatic GSH: pretreated wild-type mice, two hours after APAP 250 mg/kg
Protocol: CAR (+/+) or CAR (−/−) animals pretreated with phenobarbital (PB), TCPOBOP (TC), or vehicle alone were administered a 250 mg/kg dose of APAP by intraperitoneal injection (n=5–7 per treatment group) (FIG. 11A). Serum was collected and alanine aminotransferase (ALT) levels were measured after 24 hours. Liver sections from different treatments were examined by histological staining (FIG. 11B). Liver samples from all treated animals were analyzed but only representative histology is presented. […] CAR (+/+) or CAR (−/−) animals were pretreated with PB, TCPOBOP (TC), or vehicle alone for three days (FIG. 11C). […] Liver samples treated as indicated were collected two hours after APAP and GSH levels were measured (n=5–7) (FIG. 11D).
FIG. 15A is a picture of the histological staining of liver sections after two hours of 500 mg/kg APAP treatment. Liver sections from animals injected with 500 mg/kg APAP for 0 or 2 hours were stained with hematoxylin and eosin. Arrows indicate initial stages of necrosis surrounding central veins. The same liver samples were collected and GSH levels were measured at 0 and 2 hours as indicated. FIG. 15B is a graph of these GSH levels.
For histologic examination of the treated mice, the left lobe of the livers was removed and immediately fixed in 4% formaldehyde-PBS solution, embedded in paraffin, sectioned at 5 μm, and stained with hematoxylin and eosin. Samples were examined under a light microscope. For RNA studies, total RNA was extracted using TRIzol Reagent (Invitrogen Life Technologies, Carlsbad, Calif.) according to the manufacture's instruction. Equivalent amount of RNA from 3–5 mice were pooled and 10 μg of each sample was subjected to northern blot analysis. […] Preparation of probes for CYP2B10 and CYP3A11 were described as previously (Wei et al., Nature 407:920–923, 2000 and Zelko et al., Mol Cell Biol 21:2838–2846, 2001). PCR primers used were: CYP1A2: 5′-[…]-3′ (SEQ ID NO: 19) and 5′-[…]-3′ (SEQ ID NO: 20), CYP2E1: 5′-[…]-3′ (SEQ ID NO: 21) and 5′-[…]-3′ (SEQ ID NO: 22), GSTPi: 5′-[…]-3′ (SEQ ID NO: 23) and 5′-[…]-3′ (SEQ ID NO: 24). Hepatic non-protein thiol was measured as an indication of hepatic GSH content. Mice were sacrificed two hours after intraperitoneal injection with APAP. Livers were removed and immediately homogenized in four volumes of 5% trichloroacetic acid and then centrifuged at 1,600×g for 15 minutes. Supernatant (0.5 ml) was mixed with 1.5 ml 0.1 mM Ellman's reagent [5,5′-dithio-bis(2-nitrobenzoic acid)] (Sigma, St Louis, Mo.) and allowed to stand at room temperature for 15 minutes. Absorbance was read at 412 nm using GSH solutions as quantitative standards.

CYP3A11 = test: Northern blot of CYP3A11 mRNA in liver; conditions: for induction of CYP311: CAR −/− mice; for induction of murine CYP3A11 mRNA: wild-type mice
Protocol: At least three mice between about 8–10 weeks old were used for each treatment. Mice were pretreated by intraperitoneal injection with corn oil, PB (100 mg/kg, Sigma), or TCBOPOP (3 mg/kg) for the indicated time. For a three day PB treatment, mice were injected intraperitoneally three times with PB, at one injection per day.

CYP2B10 = test: In situ hybridization of CYP2B10 in small intestine; conditions: for CYP2B10 expression in the small intestine: 3 days treatment; for number of grains per cell, with or without treatment: CAR −/− animals; for number of grains per cell, with or without treatment / number of grains per cell, treated versus untreated: small intestine
[4] = test system: wild-type and CAR −/− mice; conditions: acute treatment (Heubel et al.); cited from earlier work

SMILES	hyperplasia or hypertrophy in the liver [1]	liver mass ([1]; CAR −/− mice)	liver mass ([1]; wild-type mice)	evidence of liver damage after cocaine [2]	serum ALT as acute response to cocaine [2]	suppression of CYP2E1 and induction of CYP1A2, CYP3A11, GSTPi [3]	CYP1A2 mRNA [3]	CYP2E1 mRNA levels [3]	CYP3A11 mRNA [3]	GSTPi mRNA [3]	hepatic GSH levels versus vehicle CAR (+/+) and pretreated CAR (−/−) animals (hepatic GSH)	decrease in hepatic GSH (hepatic GSH)	induction of CYP311 (CYP3A11)	induction of murine CYP3A11 mRNA (CYP3A11)	CYP2B10 expression in the small intestine (CYP2B10; CAR knockout mice)	number of grains per cell, with or without treatment (CYP2B10)	CYP2B10 expression in the small intestine (CYP2B10; wild-type mice)	number of grains per cell, treated versus untreated (CYP2B10; wild-type mice)	increase in liver mass relative to total body mass [4]
CCC1(c2ccccc2)C(=O)NC(=O)NC1=O [PB, phenobarbital]	not detected	did not show any evidence of increased liver mass	increase in liver mass	not observed	significant increase	Neither the suppression of CYP2E1 nor the induction of the other enzymes was observed	induced	modestly suppressed	induced	induced	significantly different	approximately 50%	negligible level of induction	substantial induction	not detected	not significantly different	induced CYP2B10 expression	approximately two-fold higher	–
Clc1cnc(Oc2ccc(Oc3ncc(Cl)cc3Cl)cc2)c(Cl)c1 [TCPOBOP, 1,4-bis[2-(3,5-dichloropyridyloxy)]benzene]	not detected	did not show any evidence of increased liver mass	increase in liver mass	not observed	significant increase	Neither the suppression of CYP2E1 nor the induction of the other enzymes was observed	induced	modestly suppressed	induced	induced	significantly different	approximately 50%	negligible level of induction	substantial induction	not detected	not significantly different	induced CYP2B10 expression	approximately two-fold higher	up to 2 fold
